Read-outs that look alike come from different tables or passages of the source.
Tests used:
[1] = Dissolved concentration of the L-amino acid in the reaction mixture after completion of the reaction (HPLC); settings: substrate solution pH 8, 45° C.
Method: (§1) Here, the “dissolved concentration” refers to percentage (%) by weight of an amino acid dissolvable in the reaction mixture after completion of the reaction, and can be measured by the following method. That is, the L-amino acid is added to the reaction mixture after completion of the reaction until the L-amino acid is no longer dissolved. After that, the mixture is centrifuged, and the resulting supernatant is filtered. The amino acid present in the filtrate is quantitatively analyzed by high performance liquid chromatography, and the percentage (%) by weight of the amino acid is calculated.

[2] = pH 8
Method: as §1

[3] = L-amino acid dissolvable in reaction mixture after reaction of the N-succinyl-DL-amino acid with liquid cultures of E. coli HB101 (pNHK) and E. coli HB101 (pNIG)

dissolved concentration [2] [% by weight]	Compound	dissolved concentration [1, 3] [% by weight]	dissolved concentration ([1]; L-amino acid dissolvable in reaction mixture after reaction with liquid culture of E. coli HB101 (pNIGHK)) [% by weight]
–	N[C@@H](Cc1cccc(F)c1)C(=O)O [L-3-fluorophenylalanine]	≤ 0.5	–
–	N[C@@H](Cc1ccc(Br)cc1)C(=O)O [L-4-bromophenylalanine]	≤ 0.5	–
–	C=CCCCCC[C@H](N)C(=O)O [L-6-heptenylglycine]	≤ 0.5	≤ 0.5
–	N[C@@H](Cc1ccccc1)C(=O)O [L-phenylalanine, reference compound]	4	–
≤ 0.5	L-2-indanylglycine	–	–

Reference: patent US9464306B2, “Method for producing L-amino acid” (KANEKA CORPORATION, priority 2008, dated 2016)
